Data from patent US9212205B2, “Nucleic acid binding compounds and methods of use” (University of Rochester, priority 2007, dated 2015).
Read-outs that look alike come from different tables or passages of the source.

What was measured:
[1] = molecular target: HIV-1 frameshift-inducing RNA stem-loop (SEQ ID NO:1); test: Fluorescence titration of Cy-3 labeled HIV-1 RNA stem-loop; format: binding
Method: The binding of dicarba analogs to the HIV-1 frameshift-inducing RNA was measured using fluorescence spectroscopy. Fluorescence titrations were performed on a Varian Cary eclipse fluorescence spectrophotometer using 1 cm path-length quartz fluorescence cell. The solution of Cy-3 labeled HIV-1 RNA stem-loop in PBS buffer (400 μL, 400 nM) was taken in the cell and excited with a wavelength of 550 nm. A PMT voltage of 715 V was used for collecting the fluorescence data and the emission spectrum was collected from 555 to 600 nm wavelength range. The ligand solution in PBS buffer was added to the target RNA in the cell in either 2 or 4 μL increments and was allowed to equilibrate for 10 minutes before recording the emission spectrum. Statistical analysis of the data was carried out using Origin 7 (OriginLab corporation). Binding constants were determined by fitting the data to one-site binding model equation.
A 5′-Cy3 labeled upper stem-loop of HIV-1 RNA (SEQ ID NO:1) was titrated with increasing amount of the dicarba analogs in a phosphate buffer (PBS, pH 7.4) using the same protocol to that described in Example 3 above. The fluorescence intensity of the labeled RNA stem-loop decreased as a function of the ligand concentration. […] Normally, one would expect a greater difference between the affinities of the two isomers.
To further evaluate the binding selectivity of dicarba analogs to the frameshift-inducing stem-loop, fluorescence titrations were repeated in the presence of twenty-fold excess concentration of yeast tRNA. […] In an interesting result it was discovered that the monomeric compound (5) also bound to the HIV-1 RNA stem-loop with similar affinity as that of the other analogs, but the binding affinity was diminished in the presence of tRNA. […] Quinoline is a known intercalator of nucleotide bases and has the capability to interact with RNA non-specifically. But it is the peptidic part of the molecule in ligands 5-5 E and 5-5 Z that imparts specificity to the interaction between the ligand and the RNA stem-loop. The peptidic part on monomer 5 is insufficient to impart specificity to the interaction as evident from the results.

[2] = format: physicochemical
Method: The oxidation of 1-1 (FIG. 13, Scheme 2) to the disulfoxide was achieved by reacting 1-1 with H2O2 (1.1 eq.) and MoClO2 (0.05 eq) in 1:1 acetonitrile:water for 15 minutes, followed by purification by RP-HPLC (Jeyakumar et al., “Selective Oxidation of Sulfides to Sulfoxides and Sulfones at Room Temperature Using H2O2 and Mo(VI) Salt as Catalyst,” Tettrahedron Letters 47:4573-76 (2006), which is hereby incorporated by reference in its entirety).

[3] = molecular target: (CUG)109 RNA (SEQ ID NO:8)-MBNL1 protein interaction; test: Enzyme Fragmentation Complementation (EFC) assay of (CUG)109-MBNL1 binding inhibition; format: biochemical
Method: Small molecule-mediated inhibition of (CUG)109-MBNL1 binding was determined using an Enzyme Fragmentation Complementation (EFC) assay (Eglen et al., “β-Galactosidase Enzyme Fragment Complementation as A Novel Technology for High Throughput Screening,” Comb. Chem. High Throughput Screening 6:381-387 (2003), which is hereby incorporated by reference in its entirety). Briefly, this was performed by first immobilizing (CUG)109 RNA (SEQ ID NO:8) to a 96 well plate. Next, the immobilized RNA was incubated with recombinant MBNL1 fused to the PL enzyme donor peptide (PL-MBNL1, where “PL” is the commercial “ProLabel” enzyme donor peptide) (DiscoveRx PathHunter ProLabel Detection kit) in the presence of varying concentrations of small molecule inhibitor. The Enzyme Acceptor (EA-β-galactosidase) complement was then added, and the activity of the resulting plate—(CUG)109 bound (PL-MBNL1)-(EA-β-galactosidase) activity was monitored via a chemiluminsecent substrate. Only the EA-β-Gal bound to the PL-MBNL1 is capable of performing the luminescent reaction and, as such, any luminescence correlates to the amount of MBNL1 bound to the (CUG)109 immobilized on the plate. Wells lacking (CUG)109 RNA served as a background measure of non-specific luminescence and were subtracted from each experiment to yield a 0% bound value. Wells containing no small molecule inhibitor added served as 100% bound. […]

[4] = molecular target: (CUG) repeat RNA SEQ ID NO:7; test: Filter binding assay (FBA), SEQ ID NO:7; details: FBA, read-out: KD
Method: (§1) A filter binding assay system was utilized to provide a rapid initial assessment of binding affinity. All binding studies were performed in PBS pH 7.2+1 mM MgCl2 at 22° C. Various concentrations of small molecules were incubated with 10 nM FAM-labeled RNA in a total volume of 50 μl for 20 minutes. A slot blot apparatus was then assembled with a wet nitrocellulose filter, on top of a wet nylon filter, on top of filter paper. 40 μl of each binding mixture was then loaded into an individual well of the apparatus and allowed to penetrate the filters for 10 minutes. The peptidic disulfides selected from the DCL efficiently bind to the nitrocellulose filter. In contrast, the FAM-labeled RNA strands penetrate the nitrocellulose filter and are bound by the nylon filter. As such, RNA bound by the peptidic library members remains bound on the nitrocellulose filter, and unbound RNA passes to the nylon filter.
(§2) Densitometric analysis of the ratio of labeled RNA on the nitrocellulose to nylon filters allows quantification of binding (FIG. 15A). All binding isotherms were fit to the logistic binding model (Equation 1 above). The repetitive nature of the target sequences may in some cases result in binding stoichiometries that are more complex than a simple 1:1 interaction.
(§3) To test specificity and to confirm the determined binding affinities, filter binding assays and fluorescence titrations were performed with SEQ ID NOS: 7-11 (Table 5), and the HIV-1 frameshift stimulating RNA hairpin used in preceding Examples (SEQ ID NO:1, Table 5). Fluorescence titrations were performed using a Varian Cary Eclipse spectrophotometer. 2 μl of 50 or 500 μM small molecule were titrated into 400 μl of FAM labeled RNA sequences an allowed to equilibrate for at least 10 minutes, or until no change in fluorescence spectra was observed. Changes in fluorescence emission at 518 nm (excitation at 490 nm) were measured. Raw data were corrected for dilution dependant changes, and Em518 was plotted against small molecule concentration and fit to the one site binding equation y=(bmaz*x)/(KD+x).) Competition experiments utilizing target RNA (SEQ ID NO:7) and a 20-fold molar excess of total yeast tRNA were performed to measure non-specific RNA binding (Luedtke et al., “RNA-Ligand Interactions: Affinity and Specificity of Aminoglycoside Dimers and Acridine Conjugates to the HIV-1 Rev Response Element,” Biochemistry 42:11391-11403 (2003), which is hereby incorporated by reference in its entirety). Compound 1-1, the HIV-1 RNA ligand, served as a negative control.

[5] = molecular target: (CUG)109 RNA (SEQ ID NO:8); test: Filter binding assay (FBA), SEQ ID NO:8
Method: as §1, §2

[6] = molecular target: variant (CUG) stem RNA (SEQ ID NO:9); test: Filter binding assay (FBA), SEQ ID NO:9
Method: as §1, §2, §3

[7] = molecular target: (CUG)/(CAG) complimentary RNA (SEQ ID NO:10); test: Filter binding assay (FBA), SEQ ID NO:10
Method: as §1, §2, §3

[8] = molecular target: (CUG) loop RNA (SEQ ID NO:11); test: Filter binding assay (FBA), SEQ ID NO:11
Method: as §1, §2, §3

[9] = molecular target: HIV-1 frameshift stimulating RNA hairpin (SEQ ID NO:1); test: Filter binding assay (FBA), SEQ ID NO:1
Method: as §1, §2, §3

[10] = molecular target: (CUG) repeat RNA SEQ ID NO:7; test: Fluorescence titration (FT), SEQ ID NO:7; format: binding
Method: as §3

[11] = molecular target: variant (CUG) stem RNA (SEQ ID NO:9); test: Fluorescence titration (FT), SEQ ID NO:9; format: binding
Method: as §3

[12] = molecular target: (CUG)/(CAG) complimentary RNA (SEQ ID NO:10); test: Fluorescence titration (FT), SEQ ID NO:10; format: binding; design: key to KD: NC = Not Calculable.; NS = Not Saturatable
Method: as §3

[13] = molecular target: (CUG) loop RNA (SEQ ID NO:11); test: Fluorescence titration (FT), SEQ ID NO:11; format: binding; design: key: NC = Not Calculable.; NS = Not Saturatable
Method: as §3

[14] = 8 μM tRNA (twenty-fold excess), stem-loop 4 × 10^−7 M, PBS buffer, 25° C., read-out: Binding Affinity (Kd) in the presence of excess yeast tRNA
[15] = fluorescence titration, stem-loop 4 × 10^−7 M, PBS buffer, 25° C., read-out: Binding Affinity (Kd)

Compound | Kd [1, 15] [µM] | Kd ([4]; SEQ ID NO: 7 + 20 x tRNA) [µM] | Kd ([4]; SEQ ID NO: 7) [µM] | Kd [5] [µM] | Kd [6] [µM] | Kd [7] [µM] | Kd [8] [µM] | Kd [9] [µM] | Kd ([10]; SEQ ID NO: 7) [µM] | Kd ([10]; SEQ ID NO: 7 + 20 x tRNA) [µM] | Kd [11] [µM] | KD [12] | KD [13] | also measured
CCc1nc2ccccc2cc1C(=O)N[C@@H](C[S+]([O-])[S+]([O-])C[C@H](NC(=O)c1cc2ccccc2nc1CC)C(=O)N1CCC[C@H]1C(=O)N[C@@H](Cc1ccccc1)C(=O)NCCCN)C(=O)N1CCC[C@H]1C(=O)N[C@@H](Cc1ccccc1)C(=O)NCCCN (stereo partly drawn) [1-1 disulfoxide] | – | – | – | – | – | – | – | – | – | – | – | – | – | Kd ([1]; freshly prepared compound, read-out: KD, fluorescence titration with the HIV1 frameshift inducing stemloop): 0.41 µM; degradation after synthesis [2]: degraded within a few hours of synthesis
CCc1nc2ccccc2cc1C(=O)N[C@@H](C/C=C/C[C@H](NC(=O)c1cc2ccccc2nc1CC)C(=O)N1CCC[C@H]1C(=O)N[C@@H](Cc1ccccc1)C(=O)NCCCN)C(=O)N1CCC[C@H]1C(=O)N[C@@H](Cc1ccccc1)C(=O)NCCCN [dimer 5-5 E] | 0.41 ± 0.02 | – | – | – | – | – | – | – | – | – | – | – | – | Kd [1, 14]: 0.45 ± 0.09 µM
CCc1nc2ccccc2cc1C(=O)N[C@@H](C/C=C\C[C@H](NC(=O)c1cc2ccccc2nc1CC)C(=O)N1CCC[C@H]1C(=O)N[C@@H](Cc1ccccc1)C(=O)NCCCN)C(=O)N1CCC[C@H]1C(=O)N[C@@H](Cc1ccccc1)C(=O)NCCCN [dimer 5-5 Z] | 0.24 ± 0.05 | – | – | – | – | – | – | – | – | – | – | – | – | Kd [1, 14]: 0.29 µM
NCCCCC(NC(=O)C(CSSCC(NC(=O)C(CC(N)=O)NC(=O)c1ccc2c(c1)OCO2)C(=O)NC(CCCCN)C(=O)NCCCN)NC(=O)C(CC(N)=O)NC(=O)c1ccc2c(c1)OCO2)C(=O)NCCCN (stereo not drawn) [dimer 6-6] | – | – | – | – | – | – | – | – | – | – | – | – | – | Ki, inhibition of the (CUG)n MBNL1 interaction [3]: do not show any inhibitory effect
CCc1nc2ccccc2cc1C(=O)N[C@@H](CC(N)=O)C(=O)N[C@@H](CSSC[C@H](NC(=O)[C@@H]1CCCN1C(=O)c1cc2ccccc2nc1CC)C(=O)N[C@@H](CCCCN)C(=O)NCCCN)C(=O)N[C@@H](CCCCN)C(=O)NCCCN [dimer 7-9] | – | 10 ± 0.7 | 4.5 ± 0.6 | 2.1 | 6.4 ± 1 | 19.5 ± 1 | 4.6 ± 0.1 | 22 ± 2 | 2.1 | 2.9 | 1.6 | NC | NC | –
NCCCC[C@H](NC(=O)[C@H](CSSC[C@H](NC(=O)[C@@H]1CCCN1C(=O)c1ccc2c(c1)OCO2)C(=O)N[C@@H](CCCCN)C(=O)NCCCN)NC(=O)[C@@H]1CCCN1C(=O)c1ccc2c(c1)OCO2)C(=O)NCCCN [dimer 8-8] | – | 14 ± 4 | 5.4 ± 0.6 | 2.5 | 9.3 ± 0.4 | 21 ± 1.4 | 7.5 ± 0.9 | 41 ± 9 | 1.4 | 2.4 | 2.1 | NC | NC | –
CCc1nc2ccccc2cc1C(=O)N1CCC[C@H]1C(=O)N[C@@H](CSSC[C@H](NC(=O)[C@@H]1CCCN1C(=O)c1ccc2c(c1)OCO2)C(=O)N[C@@H](CCCCN)C(=O)NCCCN)C(=O)N[C@@H](CCCCN)C(=O)NCCCN [dimer 8-9] | – | 9.6 ± 0.7 | 4.1 ± 0.2 | 1.9 | 4.7 ± 0.1 | 21 ± 1.8 | 6 ± 0.1 | 16 ± 4 | 2.1 | 4.2 | 2.6 | NC | NC | –
CCc1nc2ccccc2cc1C(=O)N1CCC[C@H]1C(=O)N[C@@H](CSSC[C@H](NC(=O)[C@@H]1CCCN1C(=O)c1cc2ccccc2nc1CC)C(=O)N[C@@H](CCCCN)C(=O)NCCCN)C(=O)N[C@@H](CCCCN)C(=O)NCCCN [dimer 9-9] | – | 18 ± 2.1 | 6.7 ± 0.2 | 2.1 | 7.1 ± 1.1 | > 40 | 8.5 ± 0.1 | 24 ± 5 | 2.2 | 3.4 | 1.7 | – | NS | Kd [12]: 17 µM
C=CC[C@H](NC(=O)c1cc2ccccc2nc1CC)C(=O)N1CCC[C@H]1C(=O)N[C@@H](Cc1ccccc1)C(=O)NCCCN [monomer 5] | 0.37 ± 0.02 | – | – | – | – | – | – | – | – | – | – | – | – | Binding Affinity (Kd) in the presence of excess yeast tRNA ([1]; 8 μM tRNA (twenty-fold excess), stem-loop 4 × 10^−7 M, PBS buffer, 25° C.): No binding
